From patent US20210122730A1, “GLUCOCORTICOID RECEPTOR MODULATORS” (ORIC Pharmaceuticals, Inc., priority 2017, published 2021)

These compounds were tested against T1, GR (Homo sapiens, UniProt P04150) (assay: In Vitro GR Luciferase Reporter Assay (antagonist mode, CHO-K1-GR-MMTV-Luc reporter cells)). Conditions: antagonist mode, 10 nM Dexamethasone.
T1 construct: expressed in transfected cells; host or cells: CHO-K1
T1 sequence (P04150 1-777): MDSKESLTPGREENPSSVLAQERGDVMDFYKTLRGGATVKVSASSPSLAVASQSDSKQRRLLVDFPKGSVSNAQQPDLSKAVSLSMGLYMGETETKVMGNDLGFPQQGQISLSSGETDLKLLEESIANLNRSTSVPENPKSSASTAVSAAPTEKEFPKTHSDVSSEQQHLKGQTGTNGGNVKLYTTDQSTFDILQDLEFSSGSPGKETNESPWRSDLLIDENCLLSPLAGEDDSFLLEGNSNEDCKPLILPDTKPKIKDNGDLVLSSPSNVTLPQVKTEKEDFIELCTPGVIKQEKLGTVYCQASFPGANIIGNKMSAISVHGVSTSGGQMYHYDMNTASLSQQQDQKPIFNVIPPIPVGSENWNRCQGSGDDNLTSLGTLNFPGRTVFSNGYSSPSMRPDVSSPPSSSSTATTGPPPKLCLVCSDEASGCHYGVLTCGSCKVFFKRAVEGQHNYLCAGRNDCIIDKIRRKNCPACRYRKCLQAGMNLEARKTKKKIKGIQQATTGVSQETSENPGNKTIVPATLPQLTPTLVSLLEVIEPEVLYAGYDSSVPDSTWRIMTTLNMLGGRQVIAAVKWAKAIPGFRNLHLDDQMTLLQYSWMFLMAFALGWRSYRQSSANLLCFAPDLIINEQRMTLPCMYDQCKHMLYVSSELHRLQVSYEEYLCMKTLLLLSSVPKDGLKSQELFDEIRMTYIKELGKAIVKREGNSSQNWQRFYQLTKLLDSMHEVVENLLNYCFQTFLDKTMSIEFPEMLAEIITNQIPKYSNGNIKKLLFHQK
Type: cell-based
Procedure, shortened: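 Antagonist mode: compounds (8 serial 1:5 dilutions) added to GR-MMTV-luciferase CHO-K1 reporter cells co-exposed to 10 nM dexamethasone final, in phenol red-free DMEM plus 10% CSS. After roughly 18-24 h at 37° C, OneGlo luminescence read and IC50 calculated.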

SMILES	IC50 [nM]
CCn1ncc(S(=O)(=O)N(C)[C@H]2CCC3=Cc4c(cnn4-c4ccc(F)cc4)C[C@]3(C(=O)c3ccc(C(F)(F)F)cn3)C2)n1 [Example 129, 2-ethyl-N-((4aS,6S)-1-(4-fluorophenyl)-4a-(5-(trifluoromethyl)picolinoyl)-4,4a,5,6,7,8-hexahydro-1H-benzo[f]indazol-6-yl)-N-methyl-2H-1,2,3-triazole-4-sulfonamide]	≤ 100
CCn1ncc(S(=O)(=O)N(C)[C@H]2CCC3=Cc4c(cnn4-c4ccc(F)cc4)C[C@]3(C(=O)c3ccc(C4CC4)cn3)C2)n1 [Example 130, N-((4aS,6S)-4a-(5-cyclopropylpicolinoyl)-1-(4-fluorophenyl)-4,4a,5,6,7,8-hexahydro-1H-benzo[f]indazol-6-yl)-2-ethyl-N-methyl-2H-1,2,3-triazole-4-sulfonamide]	≤ 100
CCN([C@H]1CCC2=Cc3c(cnn3-c3ccc(F)cc3)C[C@]2(C(=O)c2cc(C(F)(F)F)ccn2)C1)S(=O)(=O)c1cnn(CC)c1 [Example 132, N,1-diethyl-N-((4aS,6S)-1-(4-fluorophenyl)-4a-(4-(trifluoromethyl)picolinoyl)-4,4a,5,6,7,8-hexahydro-1H-benzo[f]indazol-6-yl)-1H-pyrazole-4-sulfonamide]	≤ 100
CN([C@H]1CCC2=Cc3c(cnn3-c3ccc(F)cc3)C[C@]2(C(=O)c2nccs2)C1)S(=O)(=O)c1cnn(C)c1 [Example 133, N-((4aS,6S)-1-(4-fluorophenyl)-4a-(thiazole-2-carbonyl)-4,4a,5,6,7,8-hexahydro-1H-benzo[f]indazol-6-yl)-N,1-dimethyl-1H-pyrazole-4-sulfonamide]	≤ 100
CN([C@H]1CCC2=Cc3c(cnn3-c3ccc(F)cc3)C[C@]2(C(=O)c2ccc(C3CC3)cn2)C1)S(=O)(=O)c1ccn(C)n1 [Example 135, N-((4aS,6S)-4a-(5-cyclopropylpicolinoyl)-1-(4-fluorophenyl)-4,4a,5,6,7,8-hexahydro-1H-benzo[f]indazol-6-yl)-N,1-dimethyl-1H-pyrazole-3-sulfonamide]	≤ 100
CN(c1ccc(F)cc1)S(=O)(=O)[C@H]1CCC2=Cc3c(cnn3-c3ccc(F)cc3)C[C@]2(C(=O)c2ccccn2)C1 [Example 137, (4aS,6S)-N,1-bis(4-fluorophenyl)-N-methyl-4a-picolinoyl-4,4a,5,6,7,8-hexahydro-1H-benzo[f]indazole-6-sulfonamide]	≤ 100
CN([C@H]1CCC2=Cc3c(cnn3-c3ccc(F)cc3)C[C@]2(C(=O)c2nccs2)C1)S(=O)(=O)c1ccn(C)n1 [Example 139, N-((4aS,6S)-1-(4-fluorophenyl)-4a-(thiazole-2-carbonyl)-4,4a,5,6,7,8-hexahydro-1H-benzo[f]indazol-6-yl)-N,1-dimethyl-1H-pyrazole-3-sulfonamide]	≤ 100
Cn1cc(S(=O)(=O)N(C2CC2)[C@H]2CCC3=Cc4c(cnn4-c4ccc(F)cc4)C[C@]3(C(=O)c3ccc(C4CC4)cn3)C2)cn1 [Example 141, N-cyclopropyl-N-((4aS,6S)-4a-(5-cyclopropylpicolinoyl)-1-(4-fluorophenyl)-4,4a,5,6,7,8-hexahydro-1H-benzo[f]indazol-6-yl)-1-methyl-1H-pyrazole-4-sulfonamide]	≤ 100
CN([C@H]1CCC2=Cc3c(cnn3-c3ccc(F)cc3)C[C@]2(C(=O)c2nccs2)C1)S(=O)(=O)c1ccc(Cl)cc1 [Example 143, 4-chloro-N-((4aS,6S)-1-(4-fluorophenyl)-4a-(thiazole-2-carbonyl)-4,4a,5,6,7,8-hexahydro-1H-benzo[f]indazol-6-yl)-N-methylbenzenesulfonamide]	≤ 100
CCN([C@H]1CCC2=Cc3c(cnn3-c3ccc(F)cc3)C[C@]2(C(=O)c2cc(C(F)(F)F)ccn2)C1)S(=O)(=O)c1cnn(C)n1 [Example 145, N-ethyl-N-((4aS,6S)-1-(4-fluorophenyl)-4a-(4-(trifluoromethyl)picolinoyl)-4,4a,5,6,7,8-hexahydro-1H-benzo[f]indazol-6-yl)-2-methyl-2H-1,2,3-triazole-4-sulfonamide]	≤ 100
Cn1ccc(S(=O)(=O)N(C2CC2)[C@H]2CCC3=Cc4c(cnn4-c4ccc(F)cc4)C[C@]3(C(=O)c3nccs3)C2)n1 [Example 147, N-cyclopropyl-N-((4aS,6S)-1-(4-fluorophenyl)-4a-(thiazole-2-carbonyl)-4,4a,5,6,7,8-hexahydro-1H-benzo[f]indazol-6-yl)-1-methyl-1H-pyrazole-3-sulfonamide]	≤ 100
CN([C@H]1CCC2=Cc3c(cnn3-c3ccc(F)cc3)C[C@]2(C(=O)c2cc(C3CC3)ccn2)C1)S(=O)(=O)c1cnn(C)n1 [Example 149, N-((4aS,6S)-4a-(4-cyclopropylpicolinoyl)-1-(4-fluorophenyl)-4,4a,5,6,7,8-hexahydro-1H-benzo[f]indazol-6-yl)-N,2-dimethyl-2H-1,2,3-triazole-4-sulfonamide]	≤ 100
Cn1ccc(S(=O)(=O)N(C2CC2)[C@H]2CCC3=Cc4c(cnn4-c4ccc(F)cc4)C[C@]3(C(=O)c3ccc(C4CC4)cn3)C2)n1 [Example 152, N-cyclopropyl-N-((4aS,6S)-4a-(5-cyclopropylpicolinoyl)-1-(4-fluorophenyl)-4,4a,5,6,7,8-hexahydro-1H-benzo[f]indazol-6-yl)-1-methyl-1H-pyrazole-3-sulfonamide]	≤ 100
CCN([C@H]1CCC2=Cc3c(cnn3-c3ccc(F)cc3)C[C@]2(C(=O)c2ncc(C3CC3)s2)C1)S(=O)(=O)c1cnn(C)c1 [Example 154, N-((4aS,6S)-4a-(5-cyclopropylthiazole-2-carbonyl)-1-(4-fluorophenyl)-4,4a,5,6,7,8-hexahydro-1H-benzo[f]indazol-6-yl)-N-ethyl-1-methyl-1H-pyrazole-4-sulfonamide]	≤ 100
CCn1ccc(S(=O)(=O)N(C)[C@H]2CCC3=Cc4c(cnn4-c4ccc(F)cc4)C[C@]3(C(=O)c3cc(C(F)(F)F)ccn3)C2)n1 [Example 157, 1-ethyl-N-((4aS,6S)-1-(4-fluorophenyl)-4a-(4-(trifluoromethyl)picolinoyl)-4,4a,5,6,7,8-hexahydro-1H-benzo[f]indazol-6-yl)-N-methyl-1H-pyrazole-3-sulfonamide]	≤ 100

Other lines, results leading:

IC50 [nM]	SMILES
≤ 100	CCN([C@H]1CCC2=Cc3c(cnn3-c3ccc(F)cc3)C[C@]2(C(=O)c2nccs2)C1)S(=O)(=O)c1ccc(Cl)cc1 [Example 127, 4-chloro-N-ethyl-N-((4aS,6S)-1-(4-fluorophenyl)-4a-(thiazole-2-carbonyl)-4,4a,5,6,7,8-hexahydro-1H-benzo[f]indazol-6-yl)benzenesulfonamide]
≤ 100	CCN([C@H]1CCC2=Cc3c(cnn3-c3ccc(F)cc3)C[C@]2(C(=O)c2nccs2)C1)S(=O)(=O)c1ccc(F)cc1 [Example 128, N-ethyl-4-fluoro-N-((4aS,6S)-1-(4-fluorophenyl)-4a-(thiazole-2-carbonyl)-4,4a,5,6,7,8-hexahydro-1H-benzo[f]indazol-6-yl)benzenesulfonamide]
≤ 100	CCN([C@H]1CCC2=Cc3c(cnn3-c3ccc(F)cc3)C[C@]2(C(=O)c2ccc(C3CC3)cn2)C1)S(=O)(=O)c1cnn(C)c1 [Example 136, N-((4aS,6S)-4a-(5-cyclopropylpicolinoyl)-1-(4-fluorophenyl)-4,4a,5,6,7,8-hexahydro-1H-benzo[f]indazol-6-yl)-N-ethyl-1-methyl-1H-pyrazole-4-sulfonamide]
≤ 100	CN([C@H]1CCC2=Cc3c(cnn3-c3ccc(F)cc3)C[C@]2(C(=O)c2ccc(C3CC3)cn2)C1)S(=O)(=O)c1ccc(Cl)cc1 [Example 146, 4-chloro-N-((4aS,6S)-4a-(5-cyclopropylpicolinoyl)-1-(4-fluorophenyl)-4,4a,5,6,7,8-hexahydro-1H-benzo[f]indazol-6-yl)-N-methylbenzenesulfonamide]
≤ 100	CN([C@H]1CCC2=Cc3c(cnn3-c3ccc(F)cc3)C[C@]2(C(=O)c2ncc(C3CC3)s2)C1)S(=O)(=O)c1cnn(C)n1 [Example 148, N-((4aS,6S)-4a-(5-cyclopropylthiazole-2-carbonyl)-1-(4-fluorophenyl)-4,4a,5,6,7,8-hexahydro-1H-benzo[f]indazol-6-yl)-N,2-dimethyl-2H-1,2,3-triazole-4-sulfonamide]
≤ 100	CN([C@H]1CCC2=Cc3c(cnn3-c3ccc(F)cc3)C[C@]2(C(=O)c2nc(C3CC3)cs2)C1)S(=O)(=O)c1cnn(C)n1 [Example 150, N-((4aS,6S)-4a-(4-cyclopropylthiazole-2-carbonyl)-1-(4-fluorophenyl)-4,4a,5,6,7,8-hexahydro-1H-benzo[f]indazol-6-yl)-N,2-dimethyl-2H-1,2,3-triazole-4-sulfonamide]
≤ 100	CN([C@H]1CCC2=Cc3c(cnn3-c3ccc(F)cc3)C[C@]2(C(=O)c2ncc(C(F)(F)F)s2)C1)S(=O)(=O)c1cnn(C)n1 [Example 151, N-((4aS,6S)-1-(4-fluorophenyl)-4a-(5-(trifluoromethyl)thiazole-2-carbonyl)-4,4a,5,6,7,8-hexahydro-1H-benzo[f]indazol-6-yl)-N,2-dimethyl-2H-1,2,3-triazole-4-sulfonamide]
